Results reported in publication PMC9319939, “Siccanin Is a Dual-Target Inhibitor of Plasmodium falciparum Mitochondrial Complex II and Complex III” (Pharmaceuticals, 2022).

Assays:
[1] = system: Dd2_ELQ300 (cyt b-I22L mutation at Qi site); assay: Growth inhibition of Dd2_ELQ300 (ELQ300-resistant); type: cell-based; conditions: Plasmodium falciparum, read-out: Growth inhibition EC50, ELQ300
Method: (§1) P. falciparum 3D7-yDHODH was prepared and maintained as described previously. P. falciparum Dd2, and Dd2-derived mutant strains were kindly provided by David A. Fidock, and maintained at Nagasaki University essentially as described in reference, except without supplementation with WR99210.
(§2) Synchronized ring-form parasites (0.3% parasitemia) were prepared in complete medium containing different concentration of various compounds (at a fixed final DMSO concentration of 0.1% (v/v)) and distributed to 96-well plates at 100 μL/well. After 72 h of incubation, parasite growth was monitored by the previously described lactate dehydrogenase (PfLDH)-based assay method; plates were read using a SpectraMax® Paradigm spectrophotometer (Molecular Devices, Inc.; San Jose, CA, USA). EC50 values were calculated using Prism® ver.6.01 (GraphPad; San Diego, CA, USA). Values are presented as the means of three independent experiments.

HDF cells = assay: Mammalian cell cytotoxicity assay, CCK8, 48 h; type: cell-based; conditions: Homo sapiens
Method: (§3) Human colorectal adenocarcinoma cells (DLD-1) and Human Dermal Fibroblasts (HDF) cells were obtained from Taiho Pharmaceutical Company (Tokyo, Japan). DLD-1 cells were cultured in RPMI 1640 medium supplemented with 10% (v/v) heat-inactivated fetal bovine serum (FBS) (Gibco; San Diego, CA, USA); HDF cells were cultured in DMEM/F12 medium supplemented with 10% (v/v) heat-inactivated FBS. For both lines, cells were grown under 5% CO2 at 37 °C in an ACI-165D CO2 incubator (ASTEC; Fukuoka, Japan).
(§4) DLD-1 and HDF cells, (2.5 × 10^4 cells/mL) in 96-well plates, were cultured for 24 h. The cells then were washed with phosphate-buffered saline (PBS) and the medium was replaced with fresh medium supplemented with 10% (v/v) FBS. Medium containing siccanin at various concentrations was added to the wells and the cells were cultured for another 48 h. Controls were treated with medium containing 1% (v/v) DMSO and 10% (v/v) FBS. Next, the cells were washed with PBS and the medium was replaced with fresh medium supplemented with 10% (v/v) FBS. An aliquot (10 µL) of CCK8 solution (Cell Counting Kit-8; Dojindo Laboratories; Kumamoto, Japan) was added to each well and the plates were incubated for another 2 h, at which point absorbance at 450 nm was monitored using a SpectraMax® Paradigm spectrophotometer. The EC50 values were calculated using Prism® ver.6.01. The selectivity was calculated as the ratio between DLD-1 or HDF versus P. falciparum IC50s.

DLD-1 cells = assay: Mammalian cell cytotoxicity assay, CCK8, 48 h; type: cell-based; conditions: Homo sapiens
Method: as §3, §4

P. falciparum 3D7 strain = assay: Isobologram analysis with atovaquone and siccanin, PfLDH-based; type: cell-based, Plasmodium falciparum
Method: The effect of the combination of atovaquone and siccanin was evaluated using isobologram analysis to evaluate the synergy, additivity, or antagonism between the two compounds [51, 83]. Synchronized ring-form parasites (0.3% parasitemia) were prepared in complete medium containing different concentrations of siccanin and atovaquone (at a fixed final DMSO concentration of 0.2% (v/v)) and distributed to 96-well plates at 100 μL/well. After 72 h of incubation, parasite growth was monitored by the previously described PfLDH-based assay using a SpectraMax® Paradigm spectrophotometer. IC50 values were calculated using Prism® ver.6.01. Data represent the means of three independent experiments, each performed in triplicate. The isobologram analysis was performed as described previously. For each combination assay, IC50s were calculated from each culture of P. falciparum grown in the presence of atovaquone or siccanin alone and in combination of various concentrations of the two compounds. The fractional inhibitory concentration (FIC) value was determined using the following equation: FIC =IC50 of compound in mixture/IC50 of compound alone
The combination index (CI) value was determined using the following equation: CI =IC50 of atovaquone in mixture/IC50 of atovaquone alone+IC50 of siccanin in mixture/IC50 of siccanin alone […]

[2] = system: Dd2_GNF (Carl-I1139K mutation); assay: Growth inhibition of Dd2_GNF (GNF156-resistant); type: cell-based; conditions: Plasmodium falciparum, read-out: Growth inhibition EC50, GNF
Method: as §1, §2

For `Cc1cc(O)c2c(c1)O[C@@]1(C)CC[C@H]3C(C)(C)CCC[C@]34CO[C@@H]2[C@H]41` [Siccanin], the EC50 [1] was 18.7 µM, the EC50 (HDF cells; HDF, 48 h, read-out: 50% effective concentration (EC50), growth of HDF cells) was 16.1 ± 1.21 µM and the IC50 (HDF cells; HDF cells, read-out: Siccanin IC50, Mammal, Growth) was 16.1 µM. For the same molecule, the EC50 (DLD-1 cells; DLD-1, 48 h, read-out: 50% effective concentration (EC50), growth of DLD-1 cells) was 34.2 ± 2.73 µM, the IC50 (DLD-1 cells; DLD-1 cells, read-out: Siccanin IC50, Mammal, Growth) was 34.2 µM and the Combination index (P. falciparum 3D7 strain; combination of siccanin and atovaquone, 3D7, 72 h) was 1.0. For the same molecule, the “Combinatory effect with atovaquone” value (P. falciparum 3D7 strain; isobologram, 3D7) was “additive effect” and the EC50 [2] was 13.4 µM.
